“And” between values parts separate entries of the source, which are not always exact repeats. Equal entries are not always repeated.
Tests used:
KG-1 cells = assay: KG-1 Cell Bioassay (MTT, cell growth stimulation); assay type: cell-based, human
Protocol: Briefly, cultures of about 1×10^4 cells were incubated with dilutions of the various proteins in Iscove's modified Dulbecco's medium at 37° C. for 6 days. The tetrazolium salt MTT (3-[4,5-Dimethylthiazol-2-yl]-2,5-diphenyltetrazolium bromide; Thiazolyl blue) was then added at a final concentration of 0.5 mg/ml, and incubation was continued for another 4 hours. MTT is cleaved by mitochondrial dehydrogenase enzymes to produce a colored reaction product, formazan, the quantity of which is directly related to LOG2 cell concentration.

[1] = Analytical isoelectric focusing; assay type: physicochemical

## GM-CSF: Unoxidized recombinant mature human GM-CSF produced in E. coli; designated V0 when isolated from the secretory expression extract
KG-1 cells; KG-1 cells, 6 days, MTT, titer from dilution producing 50% maximal cell growth stimulation vs standard GM-CSF, MET-O and V variants analysed at different times
  Biological Activity (Units/mg × 10^-9): 2.9 Units/mg × 10^-9 and 5.3 Units/mg × 10^-9
KG-1 cells; percentage of the unoxidized GM-CSF specific bioactivity of the same run
  Biological Activity (% GM-CSF Activity): 100%
[1]
  pI: about 5.3

From patent publication US5358707A, “Oxidized variants of GM-CSF” (Schering Corporation, priority 1992, dated 1994)
